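Following 48 hours of exposure in 96-well plates, responses at five concentrations were used to interpolate endpoints linearly. GI50 = concentration required for 50% inhibition of growth.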 Active and inactive are the calls of the source. Cut-off read from the data, not from the text of the source: active = GI50 up to about 1.1 µM and inactive = higher.
Legend:
Test in all cases: NCI anticancer screen, dose series, 48 h
SW-620 = tested on: SW-620
HL-60 = tested on: HL-60
CCRF-CEM = tested on: CCRF-CEM
CAKI-1 = tested on: CAKI-1
SF-539 = tested on: SF-539
HOP-62 = tested on: HOP-62
HT-29 = tested on: HT-29
HOP-92 = tested on: HOP-92
Malme-3M = tested on: Malme-3M
OVCAR-4 = tested on: OVCAR-4
U-251 = tested on: U-251
NCI-H460 = tested on: NCI-H460
SK-MEL-5 = tested on: SK-MEL-5
OVCAR-3 = tested on: OVCAR-3
SR = tested on: SR
Hs-578T = tested on: Hs-578T
RPMI-8226 = tested on: RPMI-8226
HCC 2998 = tested on: HCC 2998
KM12 = tested on: KM12
ACHN = tested on: ACHN

Measured: GI50

CCOC(=O)C(C(=O)OCC)C(=S)NC1OC(COC(C)=O)C(OC(C)=O)C(OC(C)=O)C1OC(C)=O (stereo not drawn)
inactive: SW-620 > 100 µM | HL-60 > 100 µM | CCRF-CEM > 100 µM | CAKI-1 > 100 µM | SF-539 > 100 µM | HOP-62 > 100 µM | HT-29 > 100 µM | HOP-92 > 100 µM | Malme-3M > 100 µM | OVCAR-4 > 100 µM | U-251 > 100 µM | NCI-H460 > 100 µM | SK-MEL-5 > 100 µM | OVCAR-3 > 100 µM | SR > 100 µM | Hs-578T > 100 µM | RPMI-8226 > 100 µM | HCC 2998 > 100 µM | KM12 > 100 µM

CCOC(=O)N1CCN(Cc2cc(=O)n3cc(C)ccc3n2)CC1
inactive: SW-620 > 100 µM | HL-60 > 100 µM | CCRF-CEM > 100 µM | CAKI-1 > 100 µM | SF-539 > 100 µM | HOP-62 > 100 µM | HT-29 > 100 µM | HOP-92 > 100 µM | Malme-3M > 100 µM | OVCAR-4 > 100 µM | U-251 > 100 µM | NCI-H460 > 100 µM | OVCAR-3 > 100 µM | SR > 100 µM | Hs-578T > 100 µM | RPMI-8226 > 100 µM | ACHN > 100 µM | HCC 2998 > 100 µM | KM12 > 100 µM

Cc1coc2c1C[C@@]1(C)[C@H](CCC[C@@H]1C)[C@H]2O
inactive: SW-620 37.7 µM | HL-60 16.4 µM | CCRF-CEM 28.4 µM | CAKI-1 44.5 µM | SF-539 25.1 µM | HOP-62 29.4 µM | HT-29 33.3 µM | HOP-92 25.9 µM | Malme-3M 18.8 µM | OVCAR-4 28.1 µM | U-251 42.4 µM | NCI-H460 > 100 µM | SK-MEL-5 15.1 µM | OVCAR-3 22.6 µM | SR 14.6 µM | Hs-578T 71.1 µM | RPMI-8226 18.1 µM | ACHN 24.7 µM | HCC 2998 11.4 µM | KM12 > 100 µM

CCOC(=O)c1ccc(NC(=O)O/N=C(/Cl)CC)cc1
inactive: SW-620 1.87 µM | HL-60 2.21 µM | CCRF-CEM 1.82 µM | CAKI-1 4.57 µM | SF-539 17.6 µM | HOP-62 20.4 µM | HT-29 18.4 µM | HOP-92 2.75 µM | Malme-3M 4.56 µM | OVCAR-4 5.21 µM | U-251 17.8 µM | NCI-H460 19.5 µM | SK-MEL-5 16 µM | OVCAR-3 1.83 µM | SR 3.57 µM | Hs-578T 22.8 µM | RPMI-8226 1.99 µM | ACHN 9.18 µM | HCC 2998 18.1 µM | KM12 18.4 µM

NCC[Se][Se]CCN
inactive: SW-620 10.7 µM | HL-60 1.8 µM | CCRF-CEM 5.12 µM | CAKI-1 10.7 µM | SF-539 10.6 µM | HOP-62 8.67 µM | HT-29 10 µM | HOP-92 19.3 µM | Malme-3M 11.9 µM | OVCAR-4 11.8 µM | U-251 7.41 µM | NCI-H460 6.4 µM | SK-MEL-5 5.66 µM | OVCAR-3 13.9 µM | SR 10.1 µM | Hs-578T 12.4 µM | RPMI-8226 12.9 µM | ACHN 10 µM | HCC 2998 11.9 µM | KM12 8.05 µM

COc1cc2c(cc1O)CCN(C)[C@H]2Cc1ccc(Oc2c(O)c(OC)cc3c2C[C@H]2c4c(c(OC)c(OC)c(OC)c4-3)CCN2C)cc1 [THALIFABERIDINE]
inactive: SW-620 4.71 µM | HL-60 4.24 µM | CCRF-CEM 2.92 µM | CAKI-1 5.06 µM | SF-539 5.9 µM | HOP-62 6.01 µM | HT-29 2.85 µM | HOP-92 1.69 µM | Malme-3M 7.85 µM | OVCAR-4 2.3 µM | U-251 4.38 µM | NCI-H460 2.09 µM | SK-MEL-5 2.9 µM | OVCAR-3 5.36 µM | SR 1.61 µM | Hs-578T 5.3 µM | RPMI-8226 1.51 µM | ACHN 5.71 µM | HCC 2998 3.08 µM | KM12 4.11 µM

From ChEMBL document CHEMBL1201862, “PubChem BioAssay data set” (2004)
